For one experiment, the target named is EGFR (Homo sapiens, UniProt P00533). The experiment can be described thus: in vitro EGFR inhibition. The class given is biochemical.
For a further experiment, the system named is tubulin. The experiment can be described thus: tubulin polymerization inhibition. Type of experiment: biochemical. The conditions noted are these: read-out: Tubulin polymerization IC50.

EGFR, sequence (P00533 25-1210): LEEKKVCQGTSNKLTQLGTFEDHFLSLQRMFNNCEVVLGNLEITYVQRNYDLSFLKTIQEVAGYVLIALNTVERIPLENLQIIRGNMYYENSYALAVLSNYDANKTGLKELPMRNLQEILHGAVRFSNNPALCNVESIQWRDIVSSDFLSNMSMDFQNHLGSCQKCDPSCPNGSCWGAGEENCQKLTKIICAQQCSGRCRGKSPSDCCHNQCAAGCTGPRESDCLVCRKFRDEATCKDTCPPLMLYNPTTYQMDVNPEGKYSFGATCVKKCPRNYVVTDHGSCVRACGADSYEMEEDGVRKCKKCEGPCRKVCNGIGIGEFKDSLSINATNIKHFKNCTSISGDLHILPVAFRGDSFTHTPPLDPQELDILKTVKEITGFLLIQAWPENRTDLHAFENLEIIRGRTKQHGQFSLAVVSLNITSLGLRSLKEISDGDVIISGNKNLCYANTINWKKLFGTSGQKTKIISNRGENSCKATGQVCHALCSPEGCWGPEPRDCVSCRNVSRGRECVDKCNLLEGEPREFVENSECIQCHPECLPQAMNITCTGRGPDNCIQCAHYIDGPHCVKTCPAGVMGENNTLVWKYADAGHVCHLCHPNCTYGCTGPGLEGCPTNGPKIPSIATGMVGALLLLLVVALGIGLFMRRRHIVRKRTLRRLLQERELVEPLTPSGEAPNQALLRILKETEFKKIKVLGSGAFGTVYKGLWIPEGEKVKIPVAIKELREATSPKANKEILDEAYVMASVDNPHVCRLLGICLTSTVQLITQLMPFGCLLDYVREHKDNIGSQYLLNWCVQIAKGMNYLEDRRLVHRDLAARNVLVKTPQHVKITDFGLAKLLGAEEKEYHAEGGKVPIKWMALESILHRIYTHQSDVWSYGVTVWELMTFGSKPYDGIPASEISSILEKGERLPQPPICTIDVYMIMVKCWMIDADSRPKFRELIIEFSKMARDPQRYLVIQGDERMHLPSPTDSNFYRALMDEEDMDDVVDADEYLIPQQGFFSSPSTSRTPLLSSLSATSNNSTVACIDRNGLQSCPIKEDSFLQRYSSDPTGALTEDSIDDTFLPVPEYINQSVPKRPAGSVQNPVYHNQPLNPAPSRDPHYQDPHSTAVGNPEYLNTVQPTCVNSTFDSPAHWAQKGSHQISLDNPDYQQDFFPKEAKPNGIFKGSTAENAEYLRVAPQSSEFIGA

For `O=C1Nc2ccc(Cl)cc2/C1=C\C(=O)c1ccc(O)cc1` [4a, (E)-5-Chloro-3-(2-(4-hydroxyphenyl)-2-oxoethylidene)indolin-2-one], at EGFR, inhibition was half-maximal at 100 ± 70 nM (IC50). Still for that read-out and setting: the result for `Nc1ccc(C(=O)C=C2C(=O)Nc3ccc(Cl)cc32)cc1` [4b] reads 50 ± 60 nM. On to `O=C1Nc2ccc(Cl)cc2C12CC(c1ccc(O)cc1)=NN2` (stereo not drawn) [5a, 5-Chloro-5′-(4-hydroxyphenyl)-2′,4′-dihydrospiro[indoline-3,3′-pyrazol]-2-one], for which the IC50 – broadly, the concentration needed to halve the response being measured – against EGFR came to 90 ± 50 nM; in the experiment with tubulin, 3850 ± 90 nM. The like results for `Nc1ccc(C2=NNC3(C2)C(=O)Nc2ccc(Cl)cc23)cc1` (stereo not drawn) [5b, 5′-(4-Aminophenyl)-5-chloro-2′,4′-dihydrospiro[indoline-3,3′-pyrazol]-2-one] were, in that order, 70 ± 90 nM and 4350 ± 110 nM.

Consider `COc1ccc(C2=NNC3(C2)C(=O)Nc2ccc(Cl)cc23)cc1` (stereo not drawn) [5c, 5-Chloro-5′-(4-methoxyphenyl)-2′,4′-dihydrospiro[indoline-3,3′-pyrazol]-2-one], for which half-maximal inhibition at EGFR (IC50) was put at 80 ± 80 nM.

Consider `O=C1Nc2ccc(Cl)cc2C12CC(c1ccc(Cl)cc1)=NN2` (stereo not drawn) [5d, 5-Chloro-5′-(4-chlorophenyl)-2′,4′-dihydrospiro[indoline-3,3′-pyrazol]-2-one], for which the IC50 at EGFR turned out to be 40 ± 90 nM. In the case of “Tubulin polymerization inhibitor II [reference compound]”, the IC50 with tubulin stood at 4500 ± 130 nM.

Values taken from article PMC12178155 (RSC Advances, 2025).
